Legend:
kidney = test: Kidney histology (H&E) after PTX with or without 4-AP (Example 8); format: in vivo, mice; settings: PTX treated, daily saline
Experimental: To examine effects on the kidney histological studies were conducted on this tissue. Mice received PTX on day 0 of the experiment, and half of those mice also were injected with 4-AP at this time, and every day thereafter, at a dosage of 2 mg/kg. Mice not receiving 4-AP were injected with saline to control for any stress induced by daily injections. Experimental groups also included mice receiving no PTX treatment, and treated only with daily injections of saline. Mice were sacrificed after 1 week. Mice were perfused with 4% paraformaldehyde and kidneys were sectioned and stained with haematoxylin & eosin (H&E).

[1] = test system: chemotherapy-induced peripheral neuropathy (CIPN) caused by PTX; settings: mouse, in vivo
Experimental: More specifically, initial studies were conducted on the specific case of CIPN as induced by exposure to PTX. […] 16 week old C73L/6 female mice were given a single dose of 35 mg/kg PTX (i.p.). Animals were separated into control (saline, i.p., n=4) or treatment group (2 mg/kg 4-AP daily, i.p., n=4). Pre-treatment Catwalk scores were compared to 21 days post-PTX injection.
To align with clinical treatments, mice were treated with a PTX dose of 35 mg/kg (equivalent to approximately 110 mg/m^2 and within the clinical treatment range) for four cycles, each three weeks apart.
The studies also included a 4-AP treatment arm (n=4) with a daily dose of 2 mg/kg 4-AP administered i.p. (as per most previous studies by MN and colleagues).
To evaluate detailed functional changes in gait, the CatWalk™ (Noldus Information Technology, Wageningen, The Netherlands) method was implemented.
Sciatic nerve samples were harvested and resin-embedded, sectioned and imaged using transmission electron microscopy. Images were analyzed to calculate markers of peripheral neuropathy, namely: axon counts, fiber size, myelination (g ratio), and circumferential irregularity (FIG. 2).

[2] = test system: glial fibrillary acidic protein (GFAP); test: GFAP immunofluorescence in corpus callosum after PTX with or without 4-AP (Example 9); format: in vivo; settings: E0771 tumor-bearing mice; PTX 35 mg/kg day one
Experimental: To determine whether 4-AP treatment can prevent PTX-induced increases in a reactive inflammatory response in the brain, as detected by increased expression of glial fibrillary acidic protein (GFAP), 16-week-old female C57BL/6 mice were inoculated with a triple negative murine breast cancer cell line E0771. When tumors were palpable, the mice were injected with either paclitaxel and water, 4-AP, both, or saline as a control. Paclitaxel (35 mg/kg) was injected on day one and 4-AP and water were injected daily. The mice were sacrificed on day nine and their brains were perfused and harvested. Brains were cryosectioned coronally.
The mouse brain sections were stained with anti-GFAP antibodies, followed by a fluorescent secondary, for analysis via immunofluorescence.

CIPN = settings: 0-10 point scale; cited from earlier work

| SMILES | kidney histology after PTX, H&E staining (kidney) | tolerability of PTX dose [1] | expression of GFAP after PTX, corpus callosum [2] | average reduction in pain (CIPN) [point] |
| --- | --- | --- | --- | --- |
| CC(=O)O[C@H]1C(=O)[C@@]2(C)[C@H]([C@H](OC(=O)c3ccccc3)[C@]3(O)C[C@H](OC(=O)[C@H](O)[C@@H](NC(=O)c4ccccc4)c4ccccc4)C(C)=C1C3(C)C)[C@]1(OC(C)=O)CO[C@@H]1C[C@@H]2O [PTX, paclitaxel] | Loss of brush borders (dark grey arrows), nuclear dropout (grey arrow), and blebbing of tubular epithelial cells | tolerated the dose | increased expression of GFAP |  |
| CNCC[C@H](Oc1cccc2ccccc12)c1cccs1 [duloxetine] |  |  |  | 0.72 |
